In patent US8546414B2, “Ion channel modulators and methods of use” (Vertex Pharmaceuticals Incorporated, priority 2004, dated 2013):

Assays:
[1] = molecular target: T1, CaV2.2 (Homo sapiens, UniProt Q00975); assay: VIPR optical membrane potential assay with electrical stimulation, CaV2.2; format: cell-based; details: Table 9, CaV 2.2 receptors
T1 construct: expressed in transfected cells; host or cells: HEK293
Protocol: A. Optical Methods for Assaying CaV Inhibition Properties of Compounds:
(§1) Antagonist properties of test compounds were assessed as follows. Cells expressing the CaV of interest were placed into microtiter plates. After an incubation period, the cells were stained with fluorescent dyes sensitive to the transmembrane potential. The test compounds were added to the microtiter plate. The cells were stimulated with electrical means to evoke a CaV dependent membrane potential change from unblocked channels, which was detected and measured with trans-membrane potential-sensitive dyes. Antagonists were detected as a decreased membrane potential response to the stimulus.
(§2) VIPR® Optical Membrane Potential Assay Method with Electrical Stimulation
The following is an example of how CaV2.2 inhibition activity is measured using the optical membrane potential method. Other subtypes are performed in an analogous mode in a cell line expressing the CaV of interest.
HEK293 cells stably expressing CaV2.2 are plated into 96-well microtiter plates. After an appropriate incubation period, the cells are stained with the voltage sensitive dyes CC2-DMPE/DiSBAC2(3) as follows.
(§3) 2X CC2-DMPE=20 μM CC2-DMPE: 10 mM CC2-DMPE is vortexed with an equivalent volume of 10% Pluronic, followed by vortexing in required amount of HBSS containing 10 mM HEPES. Each cell plate will require 5 mL of 2×CC2-DMPE. 50 μL of 2×CC2-DMPE is added to wells containing washed cells, resulting in a 10 μM final staining concentration. The cells are stained for 30 minutes in the dark at RT.
Vortex in required amount of Bath X with beta-cyclodextrin. Each 96 well cell plate will require 5 ml of 2XCC2DMPE. Wash plate with ELx405 with Bath X, leaving a residual volume of 50 μL/well. Add 50 μL of 2XCC2DMPE & […] to each well. Stain for 30 minutes in the dark at RT.
Allow solution to sit for 10 minutes. Slowly mix in 370 mM BaCl2. This solution can be used to solvate compound plates. Note that compound plates are made at 1.5× drug concentration and not the usual 2X. Wash CC2 stained plate, again, leaving residual volume of 50 μL. Add 100 uL/well of the AY17 solution. Stain for 15 minutes in the dark at RT. Run plate on the optical reader.
(§4) The instrument comprises a microtiter plate handler, an optical system for exciting the coumarin dye while simultaneously recording the coumarin and oxonol emissions, a waveform generator, a current- or voltage-controlled amplifier, and a device for inserting electrodes in well. Under integrated computer control, this instrument passes user-programmed electrical stimulus protocols to cells within the wells of the microtiter plate.
Insert or use electrodes into each well to be assayed.
(§5) Use the current-controlled amplifier to deliver stimulation wave pulses for 3-5 s. Two seconds of pre-stimulus recording are performed to obtain the un-stimulated intensities. Five seconds of post-stimulation recording are performed to examine the relaxation to the resting state.
(§6) Data are analyzed and reported as normalized ratios of background-subtracted emission intensities measured in the 460 nm and 580 nm channels. Background intensities are then subtracted from each assay channel. Background intensities are obtained by measuring the emission intensities during the same time periods from identically treated assay wells in which there are no cells. The response as a function of time is then reported as the ratios obtained using the following formula: […]
(§7) The data is further reduced by calculating the initial (Ri) and final (Rf) ratios. These are the average ratio values during part or all of the pre-stimulation period, and during sample points during the stimulation period. The response to the stimulus R=Rf/Ri is then calculated.
Control responses are obtained by performing assays in the presence of a compound with the desired properties (positive control), such as mibefradil, and in the absence of pharmacological agents (negative control).

[2] = molecular target: T2, NaV1.3 (Homo sapiens, UniProt Q9NY46); assay: VIPR optical membrane potential assay with electrical stimulation, NaV1.3; format: cell-based; details: Table 9, NaV 1.3 receptors
T2 construct: expressed in transfected cells; host or cells: HEK293
Protocol: as §1, with “expressing the NaV of interest” for “expressing the CaV of interest”, “stimulated with either chemical or electrical means” for “stimulated with electrical means”, “evoke a NaV dependent membrane” for “evoke a CaV dependent membrane”
as §2
The following is an example of how NaV1.3 inhibition activity is measured using the optical membrane potential method#2. Other subtypes are performed in an analogous mode in a cell line expressing the NaV of interest.
HEK293 cells stably expressing NaV1.3 are plated into 96-well microtiter plates. After an appropriate incubation period, the cells are stained with the voltage sensitive dyes CC2-DMPE/DiSBAC2(3) as follows.
as §3, with “pluronic,” for “Pluronic,”
2X DISBAC2(3) with ABSC1=6 μM DISBAC2(3) and 1 mM ABSC1: The required amount of 10 mM DISBAC2(3) is added to a 50 ml conical tube and mixed with 1 μL 10% pluronic for each mL of solution to be made and vortexed together. Then HBSS/HEPES is added to make up 2× solution. Finally, the ABSC1 is added.
The 2X DiSBAC2(3) solution can be used to solvate compound plates. Note that compound plates are made at 2× drug concentration. Wash stained plate again, leaving residual volume of 50 Add 50 μL/well of the 2X DiSBAC2(3) w/ABSC1. Stain for 30 minutes in the dark at RT.
as §4
as §5, with “• 1. Insert or use electrodes into each well to be assayed. • 2. Use” for “Use”, “3” for “3-5”, “state. Data Analysis” for “state.”
as §6, §7
Control responses are obtained by performing assays in the presence of a compound with the desired properties (positive control), such as tetracaine, and in the absence of pharmacological agents (negative control). Responses to the negative (N) and positive (P) controls are calculated as above. The compound antagonist activity A is defined as: […]

T1 sequence (Q00975 whole entry): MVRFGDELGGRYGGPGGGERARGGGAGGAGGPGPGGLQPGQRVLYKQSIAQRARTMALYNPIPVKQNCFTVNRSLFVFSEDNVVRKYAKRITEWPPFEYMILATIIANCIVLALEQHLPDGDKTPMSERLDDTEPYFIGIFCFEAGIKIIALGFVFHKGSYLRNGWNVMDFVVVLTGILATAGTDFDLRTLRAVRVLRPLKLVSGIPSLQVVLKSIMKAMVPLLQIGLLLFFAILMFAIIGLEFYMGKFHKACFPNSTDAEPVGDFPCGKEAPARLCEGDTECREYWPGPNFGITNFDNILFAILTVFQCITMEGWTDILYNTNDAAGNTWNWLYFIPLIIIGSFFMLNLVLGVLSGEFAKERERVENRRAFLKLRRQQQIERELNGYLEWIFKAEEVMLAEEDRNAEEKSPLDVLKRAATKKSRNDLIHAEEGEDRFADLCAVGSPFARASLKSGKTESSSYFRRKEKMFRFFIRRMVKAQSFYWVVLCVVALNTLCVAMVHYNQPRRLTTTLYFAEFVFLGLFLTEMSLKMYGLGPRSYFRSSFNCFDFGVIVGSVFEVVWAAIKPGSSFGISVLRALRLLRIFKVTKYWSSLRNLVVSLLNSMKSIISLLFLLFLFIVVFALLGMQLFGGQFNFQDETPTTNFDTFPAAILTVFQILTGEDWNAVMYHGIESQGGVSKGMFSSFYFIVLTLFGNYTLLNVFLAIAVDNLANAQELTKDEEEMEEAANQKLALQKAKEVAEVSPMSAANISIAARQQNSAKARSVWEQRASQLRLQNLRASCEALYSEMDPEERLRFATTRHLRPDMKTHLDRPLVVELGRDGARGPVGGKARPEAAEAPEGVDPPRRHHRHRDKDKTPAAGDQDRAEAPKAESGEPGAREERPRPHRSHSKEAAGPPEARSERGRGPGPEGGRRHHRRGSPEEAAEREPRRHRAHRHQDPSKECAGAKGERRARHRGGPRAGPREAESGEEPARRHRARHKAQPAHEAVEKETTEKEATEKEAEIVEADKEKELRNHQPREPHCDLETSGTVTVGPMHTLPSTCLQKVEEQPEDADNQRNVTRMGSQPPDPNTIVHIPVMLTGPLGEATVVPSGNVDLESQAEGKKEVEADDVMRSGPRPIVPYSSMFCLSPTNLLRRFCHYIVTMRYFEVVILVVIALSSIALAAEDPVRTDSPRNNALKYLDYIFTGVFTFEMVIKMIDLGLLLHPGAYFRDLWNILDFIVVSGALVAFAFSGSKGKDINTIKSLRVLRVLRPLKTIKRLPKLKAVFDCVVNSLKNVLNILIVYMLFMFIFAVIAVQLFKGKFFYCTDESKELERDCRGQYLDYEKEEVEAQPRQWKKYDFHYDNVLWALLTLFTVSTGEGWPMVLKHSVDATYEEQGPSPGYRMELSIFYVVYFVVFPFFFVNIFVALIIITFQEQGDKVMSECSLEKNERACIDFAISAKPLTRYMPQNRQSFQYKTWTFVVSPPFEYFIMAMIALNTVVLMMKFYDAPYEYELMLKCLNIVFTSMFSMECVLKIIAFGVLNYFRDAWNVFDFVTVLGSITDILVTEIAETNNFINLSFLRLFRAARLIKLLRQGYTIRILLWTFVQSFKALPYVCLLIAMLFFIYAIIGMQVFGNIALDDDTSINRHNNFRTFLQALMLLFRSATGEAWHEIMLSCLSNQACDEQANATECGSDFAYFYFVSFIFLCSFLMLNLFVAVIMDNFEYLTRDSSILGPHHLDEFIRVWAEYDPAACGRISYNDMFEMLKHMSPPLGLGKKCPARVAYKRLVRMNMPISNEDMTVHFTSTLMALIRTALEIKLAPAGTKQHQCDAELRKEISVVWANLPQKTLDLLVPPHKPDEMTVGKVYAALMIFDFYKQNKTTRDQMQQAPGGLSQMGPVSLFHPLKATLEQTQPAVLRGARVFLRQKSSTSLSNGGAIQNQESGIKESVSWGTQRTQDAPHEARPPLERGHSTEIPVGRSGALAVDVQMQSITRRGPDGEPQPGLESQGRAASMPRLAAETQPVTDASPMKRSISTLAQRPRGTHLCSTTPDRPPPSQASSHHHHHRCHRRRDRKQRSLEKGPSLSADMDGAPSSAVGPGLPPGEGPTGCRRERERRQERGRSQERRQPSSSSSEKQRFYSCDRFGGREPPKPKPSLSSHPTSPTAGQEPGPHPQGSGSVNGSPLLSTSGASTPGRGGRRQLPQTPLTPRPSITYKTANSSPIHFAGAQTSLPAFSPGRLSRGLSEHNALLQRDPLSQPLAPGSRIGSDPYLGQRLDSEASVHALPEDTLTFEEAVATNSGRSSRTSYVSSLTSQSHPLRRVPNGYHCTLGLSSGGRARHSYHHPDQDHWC
T1 sequence (P54284 whole entry partner): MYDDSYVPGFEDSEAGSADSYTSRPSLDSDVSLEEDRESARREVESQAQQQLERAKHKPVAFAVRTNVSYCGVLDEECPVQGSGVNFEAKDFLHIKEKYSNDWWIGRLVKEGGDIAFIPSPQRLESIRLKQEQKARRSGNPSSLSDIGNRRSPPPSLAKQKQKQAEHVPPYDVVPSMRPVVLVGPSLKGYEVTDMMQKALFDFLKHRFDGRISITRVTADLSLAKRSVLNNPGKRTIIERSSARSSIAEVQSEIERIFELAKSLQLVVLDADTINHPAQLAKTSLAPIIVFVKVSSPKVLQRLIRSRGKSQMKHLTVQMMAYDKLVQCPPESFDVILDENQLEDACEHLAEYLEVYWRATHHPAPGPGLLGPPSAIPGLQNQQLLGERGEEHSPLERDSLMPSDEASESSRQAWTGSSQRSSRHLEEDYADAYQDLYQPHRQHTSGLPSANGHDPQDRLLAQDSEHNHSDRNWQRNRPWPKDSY
T1 sequence (P54289 25-956 partner limits assumed): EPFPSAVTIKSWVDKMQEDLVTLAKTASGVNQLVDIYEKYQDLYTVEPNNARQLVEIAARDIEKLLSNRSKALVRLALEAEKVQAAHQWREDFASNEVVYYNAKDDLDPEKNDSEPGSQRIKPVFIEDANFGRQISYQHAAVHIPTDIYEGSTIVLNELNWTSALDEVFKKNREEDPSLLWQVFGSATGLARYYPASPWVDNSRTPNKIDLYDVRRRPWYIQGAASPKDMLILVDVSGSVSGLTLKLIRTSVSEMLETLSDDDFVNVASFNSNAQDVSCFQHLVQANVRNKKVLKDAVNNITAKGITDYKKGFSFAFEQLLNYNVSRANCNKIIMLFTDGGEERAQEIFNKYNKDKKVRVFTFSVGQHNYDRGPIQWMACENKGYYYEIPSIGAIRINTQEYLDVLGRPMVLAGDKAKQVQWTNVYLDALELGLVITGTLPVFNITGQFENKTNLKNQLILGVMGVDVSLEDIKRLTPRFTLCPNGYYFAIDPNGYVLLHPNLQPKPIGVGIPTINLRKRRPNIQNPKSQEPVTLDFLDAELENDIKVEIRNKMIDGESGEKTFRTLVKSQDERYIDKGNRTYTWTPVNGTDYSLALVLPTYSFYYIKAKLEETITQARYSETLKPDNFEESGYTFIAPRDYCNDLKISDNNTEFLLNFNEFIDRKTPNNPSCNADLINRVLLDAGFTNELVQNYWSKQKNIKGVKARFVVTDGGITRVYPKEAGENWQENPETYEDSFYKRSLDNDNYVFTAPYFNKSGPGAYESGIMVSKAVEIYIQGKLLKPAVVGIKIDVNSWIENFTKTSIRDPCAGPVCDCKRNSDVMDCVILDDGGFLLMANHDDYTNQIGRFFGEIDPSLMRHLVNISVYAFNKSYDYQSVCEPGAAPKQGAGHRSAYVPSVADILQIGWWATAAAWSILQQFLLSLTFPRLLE
T1 sequence (P54289 957-1103 partner limits assumed): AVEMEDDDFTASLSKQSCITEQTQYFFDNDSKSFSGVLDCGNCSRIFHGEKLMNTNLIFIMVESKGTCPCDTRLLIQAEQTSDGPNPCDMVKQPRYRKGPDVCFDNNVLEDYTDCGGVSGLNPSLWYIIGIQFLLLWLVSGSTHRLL

Compound | IC50 [1] | IC50 [2]
CCN(C)c1ncc(C(=O)NCCCOC)c(-c2cccc(C)c2)n1 [compound 223] | > 10 µM | > 10 µM
N#Cc1ccc(-c2nc(NCC3CCCCC3)ncc2C(=O)N2CCCCC2)cc1 [compound 245] | > 10 µM | > 10 µM
CCCCNc1ncc(C(=O)N2CC(C)CC(C)C2)c(-c2ccc(C#N)cc2)n1 (stereo not shown) [compound 320] | > 10 µM | > 10 µM
CC(=O)NCCNC(=O)c1cnc(N2CCCC2)nc1-c1ccc(-c2ccccc2)cc1 [compound 281] | > 10 µM | > 10 µM
CC(C)N(Cc1ccccc1)C(=O)c1cnc(N2CCOCC2)nc1-c1ccccc1F [compound 326, 4-(2-Fluoro-phenyl)-2-morpholin-4-yl-pyrimidine-5-carboxylic acid benzyl-isopropyl-amide] | 2 to 10 µM | > 10 µM
CCN(Cc1cccc(C)c1)C(=O)c1cnc(N2CCN(C(C)=O)CC2)nc1-c1ccc(C#N)cc1 [compound 208] | > 10 µM | > 10 µM
CC1C(NC(=O)c2cnc(N3CCOCC3)nc2-c2ccc(C#N)cc2)CC2CC1C2(C)C (stereo not shown) [compound 217] | > 10 µM | > 10 µM
N#Cc1ccc(-c2nc(NC3CCCCC3)ncc2C(=O)N2CCCC2)cc1 [compound 210] | > 10 µM | > 10 µM
COCCNc1ncc(C(=O)N(C)C2CCCCC2)c(-c2ccc(C#N)cc2)n1 [compound 256] | > 10 µM | > 10 µM
CCN(Cc1ccccc1)C(=O)c1cnc(NCCCOC)nc1-c1ccccc1F [compound 327] | > 10 µM | > 10 µM
CCN(C)C(=O)c1cnc(N2CCCC(C(N)=O)C2)nc1-c1ccc(C#N)cc1 (stereo not shown) [compound 284] | > 10 µM | > 10 µM
N#Cc1ccc(-c2nc(N3CCCC3)ncc2C(=O)NCC2CCCCC2)cc1 [compound 346] | > 10 µM | > 10 µM
CCC(C)Nc1ncc(C(=O)N(C)CC)c(-c2ccc(C#N)cc2)n1 (stereo not shown) [compound 336] | > 10 µM | > 10 µM
CCC1CCC(C)N(C(=O)c2cnc(NCCc3ccc(OC)cc3)nc2-c2ccc(C#N)cc2)C1 (stereo not shown) [compound 329] | 2 to 10 µM | > 10 µM
CCN(Cc1ccccc1)C(=O)c1cnc(N2CCCC2)nc1-c1ccc(C#N)cc1 [compound 340] | > 10 µM | > 10 µM
COc1ccccc1CCNC(=O)c1cnc(N2CCCC2)nc1-c1cccc(C)c1 [compound 272] | > 10 µM | > 10 µM
COCCCNc1ncc(C(=O)NCC2CC2)c(-c2ccc(C#N)cc2)n1 [compound 231] | > 10 µM | > 10 µM
Cc1cccc(-c2nc(NCc3cccc(Cl)c3)ncc2C(=O)N(C)CC(C)C)c1 [compound 235] | > 10 µM | > 10 µM
COCCNc1ncc(C(=O)N(C)C2CCCCC2)c(-c2ccccc2F)n1 [compound 276] | > 10 µM | > 10 µM
O=C(c1cnc(NCC2CCCCC2)nc1-c1ccccc1F)N1CCOCC1 [compound 351] | > 10 µM | > 10 µM
